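In this assay, cells in 96-well plates receive the compound at five concentrations for 48 hours. Endpoints are linearly interpolated between the surrounding concentrations. The concentration for full growth arrest is given as TGI.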
Legend:
Experiment in all cases: NCI anticancer screen, dose series, 48 h
786-0 renal = system: 786-0 renal
A498 renal = system: A498 renal
A549 NSCLC = system: A549 NSCLC
ACHN renal = system: ACHN renal
BT-549 breast = system: BT-549 breast
CAKI-1 renal = system: CAKI-1 renal
CCRF-CEM leukemia = system: CCRF-CEM leukemia
COLO 205 colon = system: COLO 205 colon
DU-145 prostate = system: DU-145 prostate
HCC-2998 colon = system: HCC-2998 colon
HCT-116 colon = system: HCT-116 colon
HCT-15 colon = system: HCT-15 colon
HOP-62 NSCLC = system: HOP-62 NSCLC
HOP-92 NSCLC = system: HOP-92 NSCLC
HT29 colon = system: HT29 colon
IGROV1 ovarian = system: IGROV1 ovarian
K-562 leukemia = system: K-562 leukemia
KM12 colon = system: KM12 colon
M14 melanoma = system: M14 melanoma
MALME-3M melanoma = system: MALME-3M melanoma
MCF7 breast = system: MCF7 breast
MDA-MB-231 breast = system: MDA-MB-231 breast
MDA-MB-435 = system: MDA-MB-435
MDA-N = system: MDA-N
MOLT-4 leukemia = system: MOLT-4 leukemia
NCI-H226 lung = system: NCI-H226 lung
NCI-H23 lung = system: NCI-H23 lung
NCI-H460 lung = system: NCI-H460 lung
NCI-H522 lung = system: NCI-H522 lung
NCI/ADR-RES ovarian = system: NCI/ADR-RES ovarian
OVCAR-3 ovarian = system: OVCAR-3 ovarian
OVCAR-4 ovarian = system: OVCAR-4 ovarian
OVCAR-5 ovarian = system: OVCAR-5 ovarian
OVCAR-8 ovarian = system: OVCAR-8 ovarian
PC-3 prostate = system: PC-3 prostate
RXF 393 renal = system: RXF 393 renal
SF-268 CNS = system: SF-268 CNS
SF-295 CNS = system: SF-295 CNS
SF-539 CNS = system: SF-539 CNS
SK-MEL-28 melanoma = system: SK-MEL-28 melanoma
SK-OV-3 ovarian = system: SK-OV-3 ovarian
SN12C renal = system: SN12C renal
SNB-19 CNS = system: SNB-19 CNS
SR leukemia = system: SR leukemia
SW-620 colon = system: SW-620 colon
T-47D breast = system: T-47D breast
TK-10 renal = system: TK-10 renal
U251 CNS = system: U251 CNS
UACC-257 melanoma = system: UACC-257 melanoma
UACC-62 melanoma = system: UACC-62 melanoma
UO-31 renal = system: UO-31 renal
EKVX NSCLC = system: EKVX NSCLC
LOX IMVI melanoma = system: LOX IMVI melanoma
RPMI-8226 leukemia = system: RPMI-8226 leukemia
SK-MEL-5 melanoma = system: SK-MEL-5 melanoma
SNB-75 CNS = system: SNB-75 CNS

Q: Which TGI (786-0 renal) does the source give for Cc1ccc2c(n1)NC(=O)C(Cc1ccccc1)(N=[N+]=[N-])C2=O (stereo not given) here?
A: The TGI was over 100 µM.

Q: What about the TGI (A498 renal) of the same molecule?
A: The TGI was over 100 µM.

Q: And the TGI (A549 NSCLC)?
A: The TGI was over 100 µM.

Q: And the TGI (ACHN renal)?
A: Its TGI is over 100 µM.

Q: What about the TGI (BT-549 breast) of the same molecule?
A: The TGI was over 100 µM.

Q: What about the TGI (CAKI-1 renal) of the same molecule?
A: Its TGI is over 100 µM.

Q: What about the TGI (CCRF-CEM leukemia) of the same molecule?
A: The TGI was over 100 µM.

Q: What about the TGI (COLO 205 colon) of the same molecule?
A: The TGI was over 100 µM.

Q: What about the TGI (DU-145 prostate) of the same molecule?
A: Its TGI is over 100 µM.

Q: And the TGI (HCC-2998 colon)?
A: Its TGI is over 100 µM.

Q: And the TGI (HCT-116 colon)?
A: The TGI was over 100 µM.

Q: And the TGI (HCT-15 colon)?
A: The TGI was over 100 µM.

Q: And the TGI (HOP-62 NSCLC)?
A: Its TGI is over 100 µM.

Q: And the TGI (HOP-92 NSCLC)?
A: The TGI was over 100 µM.

Q: And the TGI (HT29 colon)?
A: Its TGI is over 100 µM.

Q: And the TGI (IGROV1 ovarian)?
A: The TGI was over 100 µM.

Q: What about the TGI (K-562 leukemia) of the same molecule?
A: Its TGI is over 100 µM.

Q: And the TGI (KM12 colon)?
A: Its TGI is over 100 µM.

Q: What about the TGI (M14 melanoma) of the same molecule?
A: The TGI was over 100 µM.

Q: And the TGI (MALME-3M melanoma)?
A: The TGI was over 100 µM.

Q: And the TGI (MCF7 breast)?
A: The TGI was over 100 µM.

Q: What about the TGI (MDA-MB-231 breast) of the same molecule?
A: Its TGI is over 100 µM.

Q: And the TGI (MDA-MB-435)?
A: Its TGI is over 100 µM.

Q: And the TGI (MDA-N)?
A: Its TGI is over 100 µM.

Q: What about the TGI (MOLT-4 leukemia) of the same molecule?
A: Its TGI is over 100 µM.

Q: And the TGI (NCI-H226 lung)?
A: Its TGI is over 100 µM.

Q: And the TGI (NCI-H23 lung)?
A: Its TGI is over 100 µM.

Q: And the TGI (NCI-H460 lung)?
A: The TGI was over 100 µM.

Q: What about the TGI (NCI-H522 lung) of the same molecule?
A: Its TGI is over 100 µM.

Q: And the TGI (NCI/ADR-RES ovarian)?
A: The TGI was over 100 µM.

Q: And the TGI (OVCAR-3 ovarian)?
A: The TGI was over 100 µM.

Q: And the TGI (OVCAR-4 ovarian)?
A: Its TGI is over 100 µM.

Q: And the TGI (OVCAR-5 ovarian)?
A: The TGI was over 100 µM.

Q: And the TGI (OVCAR-8 ovarian)?
A: Its TGI is over 100 µM.

Q: What about the TGI (PC-3 prostate) of the same molecule?
A: Its TGI is over 100 µM.

Q: What about the TGI (RXF 393 renal) of the same molecule?
A: Its TGI is over 100 µM.

Q: And the TGI (SF-268 CNS)?
A: Its TGI is over 100 µM.

Q: And the TGI (SF-295 CNS)?
A: Its TGI is over 100 µM.

Q: And the TGI (SF-539 CNS)?
A: The TGI was over 100 µM.

Q: And the TGI (SK-MEL-28 melanoma)?
A: The TGI was over 100 µM.

Q: What about the TGI (SK-OV-3 ovarian) of the same molecule?
A: The TGI was over 100 µM.

Q: What about the TGI (SN12C renal) of the same molecule?
A: The TGI was over 100 µM.

Q: And the TGI (SNB-19 CNS)?
A: The TGI was over 100 µM.

Q: And the TGI (SR leukemia)?
A: The TGI was over 100 µM.

Q: What about the TGI (SW-620 colon) of the same molecule?
A: The TGI was over 100 µM.

Q: What about the TGI (T-47D breast) of the same molecule?
A: Its TGI is over 100 µM.

Q: And the TGI (TK-10 renal)?
A: Its TGI is over 100 µM.

Q: And the TGI (U251 CNS)?
A: The TGI was over 100 µM.

Q: What about the TGI (UACC-257 melanoma) of the same molecule?
A: The TGI was over 100 µM.

Q: And the TGI (UACC-62 melanoma)?
A: The TGI was over 100 µM.

Q: And the TGI (UO-31 renal)?
A: The TGI was over 100 µM.

Q: How did the TGI (786-0 renal) turn out when CCCCCCCCCC(=O)NC(CCC(=O)N(CCNC(=O)c1nc(-c2ccccc2)oc1-c1ccccc1)Cc1ccccc1)C(=O)O (stereo not given) was run?
A: Its TGI is 32 µM.

Q: What about the TGI (A498 renal) of the same molecule?
A: The TGI was 39.7 µM.

Q: What about the TGI (A549 NSCLC) of the same molecule?
A: The TGI was 31.9 µM.

Q: What about the TGI (ACHN renal) of the same molecule?
A: The TGI was 38 µM.

Q: What about the TGI (BT-549 breast) of the same molecule?
A: Its TGI is 33.5 µM.

Q: What about the TGI (CAKI-1 renal) of the same molecule?
A: The TGI was 31.2 µM.

Q: What about the TGI (COLO 205 colon) of the same molecule?
A: Its TGI is 36.8 µM.

Q: And the TGI (DU-145 prostate)?
A: The TGI was 43.7 µM.

Q: And the TGI (EKVX NSCLC)?
A: Its TGI is 35.1 µM.

Q: And the TGI (HCT-116 colon)?
A: The TGI was 32.5 µM.

Q: What about the TGI (HCT-15 colon) of the same molecule?
A: Its TGI is 29.6 µM.

Q: And the TGI (HOP-62 NSCLC)?
A: The TGI was 30.5 µM.

Q: And the TGI (HOP-92 NSCLC)?
A: The TGI was 34.8 µM.

Q: And the TGI (HT29 colon)?
A: The TGI was 32.3 µM.

Q: And the TGI (IGROV1 ovarian)?
A: The TGI was 39.8 µM.

Q: And the TGI (KM12 colon)?
A: Its TGI is 46.6 µM.

Q: And the TGI (LOX IMVI melanoma)?
A: The TGI was 35.9 µM.

Q: And the TGI (M14 melanoma)?
A: Its TGI is 28.3 µM.

Q: What about the TGI (MALME-3M melanoma) of the same molecule?
A: The TGI was 34.8 µM.

Q: What about the TGI (MDA-MB-231 breast) of the same molecule?
A: The TGI was 40.6 µM.

Q: And the TGI (MDA-MB-435)?
A: Its TGI is 38.3 µM.

Q: What about the TGI (MDA-N) of the same molecule?
A: The TGI was 36.4 µM.

Q: What about the TGI (MOLT-4 leukemia) of the same molecule?
A: Its TGI is over 100 µM.

Q: What about the TGI (NCI-H226 lung) of the same molecule?
A: Its TGI is 55.5 µM.

Q: What about the TGI (NCI-H23 lung) of the same molecule?
A: Its TGI is 33.9 µM.

Q: What about the TGI (NCI-H460 lung) of the same molecule?
A: The TGI was over 100 µM.

Q: And the TGI (NCI-H522 lung)?
A: Its TGI is 34.3 µM.

Q: What about the TGI (NCI/ADR-RES ovarian) of the same molecule?
A: Its TGI is 33.3 µM.

Q: And the TGI (OVCAR-3 ovarian)?
A: Its TGI is 30.1 µM.

Q: What about the TGI (OVCAR-4 ovarian) of the same molecule?
A: The TGI was 75.2 µM.

Q: And the TGI (OVCAR-5 ovarian)?
A: The TGI was 31.7 µM.

Q: What about the TGI (OVCAR-8 ovarian) of the same molecule?
A: The TGI was 35.5 µM.

Q: And the TGI (RPMI-8226 leukemia)?
A: Its TGI is 79 µM.

Q: What about the TGI (RXF 393 renal) of the same molecule?
A: The TGI was 36.8 µM.

Q: And the TGI (SF-268 CNS)?
A: The TGI was 34.6 µM.

Q: What about the TGI (SF-295 CNS) of the same molecule?
A: Its TGI is 32.8 µM.

Q: What about the TGI (SF-539 CNS) of the same molecule?
A: Its TGI is 41.7 µM.

Q: And the TGI (SK-MEL-28 melanoma)?
A: Its TGI is 37.9 µM.

Q: And the TGI (SK-MEL-5 melanoma)?
A: Its TGI is 29.7 µM.

Q: What about the TGI (SK-OV-3 ovarian) of the same molecule?
A: The TGI was 30.7 µM.

Q: And the TGI (SN12C renal)?
A: The TGI was 37.6 µM.

Q: What about the TGI (SNB-19 CNS) of the same molecule?
A: The TGI was 31.8 µM.

Q: What about the TGI (SNB-75 CNS) of the same molecule?
A: Its TGI is 29.6 µM.

Q: What about the TGI (SW-620 colon) of the same molecule?
A: Its TGI is 41.8 µM.

Q: What about the TGI (T-47D breast) of the same molecule?
A: The TGI was 47.7 µM.

Q: And the TGI (TK-10 renal)?
A: Its TGI is 53.6 µM.

Q: What about the TGI (U251 CNS) of the same molecule?
A: Its TGI is 35.8 µM.

Q: What about the TGI (UACC-257 melanoma) of the same molecule?
A: The TGI was 54.7 µM.

Q: What about the TGI (UO-31 renal) of the same molecule?
A: Its TGI is 28.5 µM.
